Results: ChEMBL document CHEMBL5465560, “Selectivity Literature for EUbOPEN Chemogenomic Library” (2024)

Experiments:
[1] = target: T1, Protein kinase C epsilon type (Homo sapiens) (UniProt Q02156); test: Selectivity interaction (KinomeScan (DiscoverX)) EUB0000229b PRKCE; details: at 10 µM
T1 sequence (whole entry): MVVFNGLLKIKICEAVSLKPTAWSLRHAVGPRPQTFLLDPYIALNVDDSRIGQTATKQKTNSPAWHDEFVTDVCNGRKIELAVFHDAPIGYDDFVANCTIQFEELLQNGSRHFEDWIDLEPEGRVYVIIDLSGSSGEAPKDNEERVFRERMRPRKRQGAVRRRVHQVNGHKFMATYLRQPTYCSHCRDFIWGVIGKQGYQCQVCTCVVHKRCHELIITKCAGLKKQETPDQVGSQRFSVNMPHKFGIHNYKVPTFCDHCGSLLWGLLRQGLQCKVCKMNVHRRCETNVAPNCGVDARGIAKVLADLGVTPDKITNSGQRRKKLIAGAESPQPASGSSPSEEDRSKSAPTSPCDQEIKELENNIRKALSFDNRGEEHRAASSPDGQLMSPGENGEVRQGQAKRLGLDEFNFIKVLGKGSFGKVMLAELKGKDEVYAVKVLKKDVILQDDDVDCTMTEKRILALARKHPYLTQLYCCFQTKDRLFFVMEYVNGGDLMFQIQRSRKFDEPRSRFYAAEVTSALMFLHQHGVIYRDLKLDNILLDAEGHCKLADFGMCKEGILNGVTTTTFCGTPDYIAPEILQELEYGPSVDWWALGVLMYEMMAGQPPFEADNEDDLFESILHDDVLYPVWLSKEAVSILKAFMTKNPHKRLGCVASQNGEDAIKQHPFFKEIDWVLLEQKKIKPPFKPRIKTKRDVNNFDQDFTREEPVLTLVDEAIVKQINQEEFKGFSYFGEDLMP

[2] = target: RAF proto-oncogene serine/threonine-protein kinase (Homo sapiens) (UniProt P04049); test: Selectivity interaction (KinomeScan (DiscoverX)) EUB0001079a RAF1; details: at 1 µM
Sequence of RAF proto-oncogene serine/threonine-protein kinase (Homo sapiens) (P04049 whole entry): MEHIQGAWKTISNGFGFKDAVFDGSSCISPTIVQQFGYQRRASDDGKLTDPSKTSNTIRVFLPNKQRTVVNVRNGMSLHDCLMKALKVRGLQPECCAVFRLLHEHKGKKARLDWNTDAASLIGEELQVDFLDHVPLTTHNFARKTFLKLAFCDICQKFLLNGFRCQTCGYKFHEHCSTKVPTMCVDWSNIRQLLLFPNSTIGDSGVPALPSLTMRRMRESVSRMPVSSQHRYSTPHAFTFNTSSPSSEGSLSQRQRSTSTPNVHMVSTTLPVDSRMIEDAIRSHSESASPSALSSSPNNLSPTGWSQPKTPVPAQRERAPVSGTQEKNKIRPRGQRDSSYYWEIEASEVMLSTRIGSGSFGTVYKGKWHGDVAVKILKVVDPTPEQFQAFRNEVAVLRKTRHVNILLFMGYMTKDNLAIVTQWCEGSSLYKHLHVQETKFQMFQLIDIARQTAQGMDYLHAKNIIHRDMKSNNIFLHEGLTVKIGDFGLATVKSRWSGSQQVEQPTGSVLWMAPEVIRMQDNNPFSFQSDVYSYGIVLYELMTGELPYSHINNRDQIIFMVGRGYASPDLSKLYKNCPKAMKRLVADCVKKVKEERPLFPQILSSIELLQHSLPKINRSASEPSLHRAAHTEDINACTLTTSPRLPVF

[3] = target: T2, Ephrin type-A receptor 1 (Homo sapiens) (UniProt P21709); test: Selectivity interaction (KinomeScan (DiscoverX)) EUB0000666a EPHA1; details: at 10 µM
T2 sequence (whole entry): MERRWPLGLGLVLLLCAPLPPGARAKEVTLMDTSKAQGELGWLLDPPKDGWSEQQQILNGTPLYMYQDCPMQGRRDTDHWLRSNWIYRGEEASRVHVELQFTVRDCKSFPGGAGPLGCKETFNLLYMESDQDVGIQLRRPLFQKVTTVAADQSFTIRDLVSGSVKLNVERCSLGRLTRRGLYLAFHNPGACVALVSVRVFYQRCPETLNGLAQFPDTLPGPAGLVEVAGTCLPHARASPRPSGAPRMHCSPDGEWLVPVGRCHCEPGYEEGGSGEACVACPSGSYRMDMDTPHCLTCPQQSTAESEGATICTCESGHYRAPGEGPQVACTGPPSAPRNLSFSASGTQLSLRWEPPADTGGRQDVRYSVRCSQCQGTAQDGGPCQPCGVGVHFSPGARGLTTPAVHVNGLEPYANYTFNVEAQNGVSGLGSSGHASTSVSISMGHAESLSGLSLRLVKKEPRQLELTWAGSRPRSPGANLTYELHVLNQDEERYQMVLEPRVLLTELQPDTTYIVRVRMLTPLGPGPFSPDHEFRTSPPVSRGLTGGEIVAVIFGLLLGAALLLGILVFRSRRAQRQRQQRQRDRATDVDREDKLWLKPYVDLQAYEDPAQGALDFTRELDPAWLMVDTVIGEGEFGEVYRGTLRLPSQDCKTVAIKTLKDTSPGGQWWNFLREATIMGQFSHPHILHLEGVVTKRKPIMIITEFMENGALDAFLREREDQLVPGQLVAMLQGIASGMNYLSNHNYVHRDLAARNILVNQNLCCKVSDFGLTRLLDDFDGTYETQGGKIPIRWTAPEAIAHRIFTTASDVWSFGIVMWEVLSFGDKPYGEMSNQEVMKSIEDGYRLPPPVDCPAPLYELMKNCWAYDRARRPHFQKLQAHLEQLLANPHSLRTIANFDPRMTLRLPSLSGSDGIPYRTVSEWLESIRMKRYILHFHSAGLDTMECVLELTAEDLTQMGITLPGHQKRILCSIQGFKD

[4] = target: Calcium/calmodulin-dependent protein kinase type II subunit delta (Homo sapiens) (UniProt Q13557); test: Selectivity interaction (ActivX KiNativ screen (kinase selectivity in THP-1 cell lysates)) EUB0000639a CAMK2D; assay type: subcellular; details: lysate, at 1 µM
Sequence of Calcium/calmodulin-dependent protein kinase type II subunit delta (Homo sapiens) (Q13557 whole entry): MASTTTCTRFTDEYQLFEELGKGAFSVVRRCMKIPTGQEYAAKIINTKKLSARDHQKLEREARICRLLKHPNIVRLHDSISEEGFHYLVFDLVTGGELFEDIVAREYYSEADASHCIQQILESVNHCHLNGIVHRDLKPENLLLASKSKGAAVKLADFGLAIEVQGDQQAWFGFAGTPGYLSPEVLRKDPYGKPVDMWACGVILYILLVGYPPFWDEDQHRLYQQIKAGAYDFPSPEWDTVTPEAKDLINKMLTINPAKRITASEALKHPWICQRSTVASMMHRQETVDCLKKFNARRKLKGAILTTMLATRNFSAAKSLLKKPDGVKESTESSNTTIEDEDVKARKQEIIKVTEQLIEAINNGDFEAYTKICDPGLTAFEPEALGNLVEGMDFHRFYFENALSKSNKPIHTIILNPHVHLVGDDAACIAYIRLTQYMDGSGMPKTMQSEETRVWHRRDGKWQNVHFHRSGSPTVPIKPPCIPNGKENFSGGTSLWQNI

[5] = target: T3, Ephrin type-B receptor 4 (Homo sapiens) (UniProt P54760); test: Selectivity interaction (Ambit KINOMEscan and KiNATiv profiling in Jurkat cells) EUB0000090b EPHB4; assay type: cell-based; details: at 1 µM
T3 sequence (whole entry): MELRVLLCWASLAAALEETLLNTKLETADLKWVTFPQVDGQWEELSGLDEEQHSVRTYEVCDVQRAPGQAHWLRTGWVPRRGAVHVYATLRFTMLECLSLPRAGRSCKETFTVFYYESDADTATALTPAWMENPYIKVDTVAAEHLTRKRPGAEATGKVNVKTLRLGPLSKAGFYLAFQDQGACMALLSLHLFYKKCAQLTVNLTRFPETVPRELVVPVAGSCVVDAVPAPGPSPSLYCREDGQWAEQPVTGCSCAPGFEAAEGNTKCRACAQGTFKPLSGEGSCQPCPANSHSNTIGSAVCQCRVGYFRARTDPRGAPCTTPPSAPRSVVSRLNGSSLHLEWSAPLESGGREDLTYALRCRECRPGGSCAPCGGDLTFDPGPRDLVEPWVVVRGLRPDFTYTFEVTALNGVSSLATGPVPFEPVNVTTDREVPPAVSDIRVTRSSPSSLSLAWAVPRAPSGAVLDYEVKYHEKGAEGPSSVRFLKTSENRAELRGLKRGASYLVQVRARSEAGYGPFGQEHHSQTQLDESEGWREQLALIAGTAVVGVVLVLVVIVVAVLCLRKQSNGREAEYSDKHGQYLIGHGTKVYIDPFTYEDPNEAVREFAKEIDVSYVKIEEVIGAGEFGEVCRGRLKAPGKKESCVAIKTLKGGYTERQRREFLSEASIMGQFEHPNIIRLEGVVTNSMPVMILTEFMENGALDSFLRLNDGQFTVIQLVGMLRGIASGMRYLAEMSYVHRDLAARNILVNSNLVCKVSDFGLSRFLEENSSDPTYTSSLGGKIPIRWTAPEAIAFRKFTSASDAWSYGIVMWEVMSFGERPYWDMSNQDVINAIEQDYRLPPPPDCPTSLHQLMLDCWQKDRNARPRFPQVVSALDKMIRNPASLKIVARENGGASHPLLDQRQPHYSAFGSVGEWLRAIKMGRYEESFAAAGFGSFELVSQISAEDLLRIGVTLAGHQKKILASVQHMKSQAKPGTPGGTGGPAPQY

[6] = target: Microtubule-associated serine/threonine-protein kinase 3 (Homo sapiens) (UniProt O60307); test: Selectivity interaction (ActivX KiNativ screen (ex vivo kinase selectivity in human PBMCs)) EUB0001619a MAST3; assay type: cell-based; details: PBMC, at 1 µM
Sequence of Microtubule-associated serine/threonine-protein kinase 3 (Homo sapiens) (O60307 whole entry): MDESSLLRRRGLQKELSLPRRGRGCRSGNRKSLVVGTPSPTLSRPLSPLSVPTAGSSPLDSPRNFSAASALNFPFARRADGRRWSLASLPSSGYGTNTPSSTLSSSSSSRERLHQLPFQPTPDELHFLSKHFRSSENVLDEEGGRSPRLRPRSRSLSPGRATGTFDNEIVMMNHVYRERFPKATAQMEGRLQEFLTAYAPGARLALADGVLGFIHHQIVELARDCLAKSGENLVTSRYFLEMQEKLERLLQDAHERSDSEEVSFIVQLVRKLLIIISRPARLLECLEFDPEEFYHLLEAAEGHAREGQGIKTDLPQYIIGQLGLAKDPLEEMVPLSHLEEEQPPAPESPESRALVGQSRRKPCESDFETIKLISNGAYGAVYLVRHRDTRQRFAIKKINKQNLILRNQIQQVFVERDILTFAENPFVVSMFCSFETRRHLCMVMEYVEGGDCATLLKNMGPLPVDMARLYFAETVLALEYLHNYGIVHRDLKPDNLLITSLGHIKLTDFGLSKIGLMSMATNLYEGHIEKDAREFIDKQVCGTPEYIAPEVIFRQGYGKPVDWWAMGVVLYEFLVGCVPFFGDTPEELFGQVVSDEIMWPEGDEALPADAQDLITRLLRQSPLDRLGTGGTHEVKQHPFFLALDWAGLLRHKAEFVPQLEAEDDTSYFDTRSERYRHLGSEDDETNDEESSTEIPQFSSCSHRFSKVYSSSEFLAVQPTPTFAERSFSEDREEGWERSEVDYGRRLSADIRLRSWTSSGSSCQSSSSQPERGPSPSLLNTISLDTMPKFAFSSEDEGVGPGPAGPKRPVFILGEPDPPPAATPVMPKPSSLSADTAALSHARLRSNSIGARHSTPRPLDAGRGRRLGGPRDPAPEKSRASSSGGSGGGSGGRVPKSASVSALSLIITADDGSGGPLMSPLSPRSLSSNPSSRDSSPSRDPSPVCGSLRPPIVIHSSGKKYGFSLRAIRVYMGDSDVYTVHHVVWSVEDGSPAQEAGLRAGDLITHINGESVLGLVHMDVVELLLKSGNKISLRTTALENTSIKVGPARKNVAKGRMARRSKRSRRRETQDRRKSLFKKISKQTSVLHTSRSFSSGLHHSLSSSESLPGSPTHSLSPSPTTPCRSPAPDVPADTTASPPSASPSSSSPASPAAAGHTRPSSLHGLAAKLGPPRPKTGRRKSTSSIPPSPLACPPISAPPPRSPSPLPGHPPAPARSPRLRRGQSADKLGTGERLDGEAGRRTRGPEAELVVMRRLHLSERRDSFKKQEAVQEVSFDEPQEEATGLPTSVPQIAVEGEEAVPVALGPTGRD

## COc1cc(N(C)c2ccnc3ccc(C(F)(F)F)cc23)cc(OC)c1OC
[1]
  % binding: 55%

## Nc1cnc(N2CCc3cc(S(=O)(=O)Nc4c(F)cc(Cl)cc4F)cc(N4CCCC4=O)c32)nc1 [TP-020n]
[2]
  % of control: 79%

## O=C(NOC[C@H](O)CO)c1ccc(F)c(F)c1Nc1ccc(I)cc1F
[3]
  % of control: 91%

## CC[C@@H]1[C@H](F)C(=O)N[C@@H]1COc1nccc2cc(C(N)=O)c(OC)cc12 [ZIMLOVISERTIB]
[4]
  % of inhibition: 25.1%

## CN(C)C/C=C/C(=O)Nc1ccc(C(=O)N2CCCC(Nc3ncc(Cl)c(-c4c[nH]c5ccccc45)n3)C2)cc1 (stereo unspecified)
[5]
  % of control: 94%

## N#Cc1cccc(-c2c[nH]c3ncnc(N4CCOCC4)c23)c1
[6]
  % of inhibition: 1%
